Source: patent US20040009904A1, “APL immunoreactive peptides, conjugates thereof and methods of treatment for aPL antibody-mediated pathologies” (priority 1995, published 2004)
Numbered stars: 1 amine (or outer) side, 2 acyl side, 3 side chain; on linkers, the order of the positions; unused ones are H or OH. Bridge positions count the residues as written; N and C are the ends. Square brackets hold non-standard residues; d marks the D form. Ends that are not written are not given here. Peptide text beside a SMILES is read from it. Abu(4-yl) = O=C([C@H](CC[*:3])N[*:1])[*:2]; NMeL = CN[C@@H](CC(C)C)C(=O)O; Phg = N[C@H](C(=O)O)c1ccccc1; NMeV = CN[C@H](C(=O)O)C(C)C; hCys = N[C@@H](CCS)C(=O)O; ATU = not defined here; Aib = CC(C)(N)C(=O)O

Experiments:
ACA = assay: Structure Activity Relationship of the Crossreactive ACA Epitope (relative activity); assay type: binding, human; details: LJP 688 = 100
Text: Peptide 6641/3G3 (LJP 688) was subjected to a number of analyses. The analyses included truncation at both the N-terminus and the C-terminus, disulfide substitution, substitution of alanine and glycine for amino acids in positions 2 through 8, substitution of branched aliphatic amino acids in positions 2, 4, 5 and 8, substitution of amino acids affecting conformation of the peptide, including substitution of α-methyl amino acids, substitution of basic amino acids in position 7, substitution of D-amino acids in positions 2 through 9, and the substitution of N-α-methyl amino acids in positions 1 through 9.

ACA-6701 = assay: Competitive binding peptide ACA ELISA, cardiolipin/β2-GPI-coated plates; design: species or system human; details: cyclic thioether analogs
Method: (§1) A variation of this assay uses microtitration plates coated with human β2-glycoprotein I/cardiolipin (β2-GPI/CL) instead of tetravalent peptide and tests the ability of monomeric peptides to block the binding of aPL antibody to the epitope(s) on β2-GPI/CL. In this assay, IgG-depleted human serum at an optimized concentration is used as a source of β2-GPI. The monomeric peptides at several concentrations are incubated with an optimized concentration of aPL antibody in a manner analogous to the assay which employs tetravalent peptide as a plate substrate. Following the incubation of aPL/peptide in (β2-GPI/CL) plates, antibody binding and the peptide concentration required for 50% inhibition is determined at half-maximal absorbance as in the tetravalent assay.
(§2) Peptide sequences for all five peptides immediately follow the table. All were tested using the competitive binding peptide ACA ELISA using CL/β2-GPI plates as described herein.
(§3) (B) Immulon I® 96-well, flat-bottom, polystyrene microtitration plates (Dynatech Laboratories, Inc., Chantilly, Va.) were coated with 30 μL/well of cardiolipin (CL, 50 μg; Sigma Chemical Co., St. Louis, Mo.) in ethanol. Two control wells received 30 μL ethanol only. After overnight evaporation at 4° C., each well was blocked with 200 μL of 5% (w/v) fish gelatin in PBS for 2 hours at RT.
(§4) The CL/β2-GPI microtitration plate was washed 5 times with TBS and 100 μL aliquots in duplicate from Eppendorf tubes #1, 2, 3, and 4 containing the antibody-peptide (or no peptide mixtures) were added to the wells. A volume of 100 μL from tube #4 was added to the duplicate control wells containing no cardiolipin. The microtitration plate was incubated for 1 hour at RT with agitation at 40 rpm in an orbital shaker (American Scientific, Rotator V), washed 5 times with TBS and then 100 μL of 1:1000 goat anti-human IgG alkaline phosphatase conjugate (Zymed, Cat No. 62-8422) in 0.5% (w/v) BSA-TBS was added. Following incubation for 1 hour at RT, the microtitration plate was again washed 5 times with TBS and the colorimetric enzyme detection developed by adding 100 μL of PMPP solution (7.8 g phenolphthalein monophosphate plus 69.5 g of 2-amino-2-methyl-1-propanol in 100 mL water stock solution diluted 1:26 with water). After 21 minutes, the reaction was stopped by adding 50 μL of 0.2 M Na2HPO4 (Mallinckrodt) to each well. Absorbance at 550 nm was read in a microplate reader (Bio-Tek Instruments, Model EL 311). The amount of peptide that inhibited ACA-6501 binding by 50%, the IC50, was calculated from the graph at the intersection of half-maximal absorbance with amount of peptide added.

ACA-6501 = assay: as above; design: species or system human; details: for IC50 Values, ACA-6501: cyclic thioether analogs; for with ACA 6501 150 ug/mL: Optimization of Peptide 3G3, inf = no 50% inhibition
Method: as §1, §2, §3
During this incubation, variable amounts of each of six peptides were mixed with 22 μL ACA-6501 serum diluted with 3% fish gelatin in 1:1 TBS/PBS (final dilution of 1:400) in a final volume of 220 μL using Eppendorf microcentrifuge tubes. Specifically, in tube #1 were mixed 181.3 μL of 3% fish gelatin in TBS-PBS, 16.7 μL of peptide stock solution plus 22 μL of ACA-6501 serum diluted 40 times in 3% fish gelatin/TBS-PBS. Stock solutions ranged from 450-800 μg/mL for peptides #951 (diserine non-cyclized negative control), #952 (a lot of LJP 690), and thioethers CCTE-3G3, CHTE-3G3, HCTE-3G3 and HHTE-3G3. To tube #2 the following were added: 148 μL fish gelatin/TBS-PBS, […] of peptide stock solution, plus 22 μL of 40 times diluted ACA-6501 serum. Tube #3 contained 48 μL fish gelatin/TBS-PBS, […] of peptide stock solution, plus 22 μL of 40 times diluted ACA-6501 serum. The control tube #4 received 396 μL fish gelatin/TBS-PBS and 44 μL of 40 times diluted ACA-6501 serum (no peptide). Each of the tubes incubated for approximately 1 hour at RT.
as §4

CLGVLPGKLC
Relative Activity (ACA): 1.4

CC(C)C[C@@H]1NC(=O)[C@H](CCCCN)NC(=O)CNC(=O)[C@H](CC(C)C)NC(=O)[C@H](C(C)C)NC(=O)CNC(=O)[C@H](CC(C)C)NC(=O)[C@@H](N)CSC[C@@H](C(=O)O)NC1=O [LJP 698]
IC50 Values, ACA-6701 (ACA-6701): 5.0 μg/0.1 mL | IC50 Values, ACA-6501 (ACA-6501): 11.0 μg/0.1 mL

SLGVLGKLS [diserine non-cyclized negative control, reference compound]
Relative Activity (ACA): ∞

CC(C)C[C@@H]1NC(=O)[C@H](CCCCN)NC(=O)CNC(=O)[C@H](CC(C)C)NC(=O)[C@H](C(C)C)NC(=O)CNC(=O)[C@H](CC(C)C)NC(=O)[C@@H](N)CCSCC[C@@H](C(=O)O)NC1=O [LJP 703] (H-[hCys]LGVLGKL[Abu(4-yl)]-OH; thioether 1-9; N-terminus and C-terminus assumed)
IC50 Values, ACA-6701 (ACA-6701): 3.6 μg/0.1 mL | with ACA 6501 150 ug/mL (ACA-6501): 80 µg/mL | IC50 Values, ACA-6501 (ACA-6501): 8.0 μg/0.1 mL

CC(C)C[C@@H]1NC(=O)[C@H](CCCCN)NC(=O)CNC(=O)[C@H](CC(C)C)N(C)C(=O)[C@H](C(C)C)NC(=O)CNC(=O)[C@H](CC(C)C)NC(=O)[C@@H](N)CSSC[C@@H](C(=O)O)NC1=O [C L G V nL G K L C] (H-CLGV[NMeL]GKLC-OH; disulfide 1-9)
with ACA 6501 150 ug/mL (ACA-6501): 180 µg/mL

CC(C)C[C@@H]1NC(=O)[C@H](C(C)C)NC(=O)CNC(=O)[C@H](CC(C)C)NC(=O)[C@@H](N)CSSC[C@@H](C(=O)O)NC(=O)[C@H](CC(C)C)NC(=O)C(C)(C)NC(=O)CNC1=O [C L G V L G aiB L C] (H-CLGVLG[Aib]LC-OH; disulfide 1-9)
with ACA 6501 150 ug/mL (ACA-6501): 460 µg/mL

CC(C)C[C@@H]1NC(=O)[C@H](CCCCN)NC(=O)CNC(=O)[C@H](CC(C)C)NC(=O)[C@H](C(C)C)NC(=O)[C@@H]2CCCN2C(=O)[C@H](CC(C)C)NC(=O)[C@@H](N)CSSC[C@@H](C(=O)O)NC1=O [C L P V L G K L C] (H-CLPVLGKLC-OH; disulfide 1-9)
with ACA 6501 150 ug/mL (ACA-6501): 340 µg/mL

CC(C)C[C@@H]1NC(=O)[C@@H](NC(=O)[C@@H]2CCCN2)CSSC[C@@H](C(=O)N2CCC[C@H]2C(=O)NCC(=O)O)NC(=O)[C@H](CC(C)C)NC(=O)[C@H](CCCCN)NC(=O)CNC(=O)[C@H](CC(C)C)NC(=O)[C@H](C(C)C)NC(=O)CNC1=O [P C L G V L G K L C P G] (H-PCLGVLGKLCPG-OH; disulfide 2-10)
with ACA 6501 150 ug/mL (ACA-6501): 420 µg/mL

CC(C)C[C@@H]1NC(=O)[C@H](C(C)C)NC(=O)CNC(=O)[C@H](CC(C)C)NC(=O)[C@@H](N)CSSC[C@@H](C(=O)O)NC(=O)[C@@H](CC(C)C)NC(=O)[C@@H](CC(C)C)NC(=O)CNC1=O [C L G V L G dL dL C] (H-CLGVLG[dL][dL]C-OH; disulfide 1-9)
with ACA 6501 150 ug/mL (ACA-6501): 140 µg/mL

CC(C)C[C@@H]1NC(=O)[C@H](C(C)C)NC(=O)CNC(=O)[C@H](CC(C)C)NC(=O)[C@@H](N)CSSC[C@@H](C(=O)O)NC(=O)[C@H](CC(C)C)N(C)C(=O)[C@H](CCCCN)NC(=O)CNC1=O [C L G V L G K nL C] (H-CLGVLGK[NMeL]C-OH; disulfide 1-9)
with ACA 6501 150 ug/mL (ACA-6501): 240 µg/mL

CC(C)C[C@@H]1NC(=O)[C@H](CCCCN)NC(=O)[C@@H](C)NC(=O)[C@H](CC(C)C)NC(=O)[C@H](C(C)C)NC(=O)CNC(=O)[C@H](CC(C)C)NC(=O)[C@@H](N)CSSC[C@@H](C(=O)O)NC1=O [C L G V L dA K L C] (H-CLGVL[dA]KLC-OH; disulfide 1-9)
with ACA 6501 150 ug/mL (ACA-6501): 140 µg/mL

CC(C)C[C@@H]1NC(=O)[C@H](CCCCN)NC(=O)CNC(=O)[C@H](c2ccccc2)NC(=O)[C@H](C(C)C)NC(=O)CNC(=O)[C@H](CC(C)C)NC(=O)[C@@H](N)CSSC[C@@H](C(=O)O)NC1=O [C L G Vp G G K L C] (H-CLGV[Phg]GKLC-OH; disulfide 1-9)
with ACA 6501 150 ug/mL (ACA-6501): 35 µg/mL

CC(C)C[C@@H]1NC(=O)[C@@H](NC(=O)[C@@H]2CCCN2C(=O)CNC(=O)[C@H](C)N)CSSC[C@@H](C(=O)NCC(=O)O)NC(=O)[C@H](CC(C)C)NC(=O)[C@H](CCCCN)NC(=O)CNC(=O)[C@H](CC(C)C)NC(=O)[C@H](C(C)C)NC(=O)CNC1=O [A G P C L G V L G K L C G] (H-AGPCLGVLGKLCG-OH; disulfide 4-12)
with ACA 6501 150 ug/mL (ACA-6501): 450 µg/mL

CC(C)C[C@@H]1NC(=O)[C@H](CCCCN)NC(=O)CNC(=O)[C@H](CC(C)C)NC(=O)[C@H](C(C)C)NC(=O)CNC(=O)[C@H](C)NC(=O)[C@@H](N)CSSC[C@@H](C(=O)O)NC1=O [C A G V L G K L C] (H-CAGVLGKLC-OH; disulfide 1-9)
with ACA 6501 150 ug/mL (ACA-6501): 200 µg/mL

CC(C)C[C@@H]1NC(=O)[C@H](CCCCN)NC(=O)[C@@H]2CCCN2C(=O)[C@H](CC(C)C)NC(=O)[C@H](C(C)C)NC(=O)CNC(=O)[C@H](CC(C)C)NC(=O)[C@@H](N)CSSC[C@@H](C(=O)O)NC1=O [C L G V L P K L C] (H-CLGVLPKLC-OH; disulfide 1-9)
with ACA 6501 150 ug/mL (ACA-6501): 350 µg/mL

CLGVLGGLC [C L G V L G G L C]
with ACA 6501 150 ug/mL (ACA-6501): inf

CC(C)C[C@@H]1NC(=O)[C@H](C(C)C)NC(=O)CNC(=O)[C@H](CC(C)C)NC(=O)[C@@H](N)CSSC[C@@H](C(=O)O)NC(=O)[C@@H](CC(C)C)NC(=O)[C@@H](CCCCN)NC(=O)CNC1=O [C L G V L G dK dL C] (H-CLGVLG[dK][dL]C-OH; disulfide 1-9)
with ACA 6501 150 ug/mL (ACA-6501): 150 µg/mL

CC(C)C[C@@H]1NC(=O)[C@H](C(C)C)NC(=O)CNC(=O)[C@H](CC(C)C)NC(=O)[C@@H](N)CSSC[C@@H](C(=O)O)NC(=O)[C@H](CC(C)C)NC(=O)[C@@H]2CCCN2C(=O)CNC1=O [C L G V L G P L C] (H-CLGVLGPLC-OH; disulfide 1-9)
with ACA 6501 150 ug/mL (ACA-6501): 160 µg/mL

CC(C)C[C@@H]1NC(=O)[C@H](CCCCN)NC(=O)CNC(=O)[C@H](CC(C)C)NC(=O)[C@@H]2CCCN2C(=O)CNC(=O)[C@H](CC(C)C)NC(=O)[C@@H](N)CSSC[C@@H](C(=O)O)NC1=O [C L G P L G K L C] (H-CLGPLGKLC-OH; disulfide 1-9)
with ACA 6501 150 ug/mL (ACA-6501): 180 µg/mL

CLGGLGKLC [C L G G L G K L C]
with ACA 6501 150 ug/mL (ACA-6501): inf.

Y ATU C L G V L G K L C ({Tyr-ATU}-CLGVLGKLC; cysteine pairing not given here; reading uncertain)
with ACA 6501 150 ug/mL (ACA-6501): 170 µg/mL

CC(C)C[C@@H]1NC(=O)[C@H](CCCCN)NC(=O)CNC(=O)[C@H](CC(C)C)NC(=O)[C@H](C(C)C)NC(=O)CNC(=O)[C@H](CC(C)C)NC(=O)[C@@H](N)CSCC[C@@H](C(=O)O)NC1=O [LJP 702] (H-CLGVLGKL[Abu(4-yl)]-OH; thioether 1-9; N-terminus and C-terminus assumed)
IC50 Values, ACA-6701 (ACA-6701): 3.2 μg/0.1 mL | with ACA 6501 150 ug/mL (ACA-6501): 92 µg/mL | IC50 Values, ACA-6501 (ACA-6501): 9.2 μg/0.1 mL

CC(C)C[C@@H]1NC(=O)[C@H](CCCCN)NC(=O)CNC(=O)[C@H](CC(C)C)NC(=O)[C@H](C(C)C)N(C)C(=O)CNC(=O)[C@H](CC(C)C)NC(=O)[C@@H](N)CSSC[C@@H](C(=O)O)NC1=O [C L G nV L G K L C] (H-CLG[NMeV]LGKLC-OH; disulfide 1-9)
with ACA 6501 150 ug/mL (ACA-6501): 220 µg/mL
